Like-named read-outs stand apart in the source and are kept apart here.
Key:
JAK2-pSTAT5 = test: GM-CSF induced pSTAT5 in human PBMC; assay type: cell-based; settings: read-out: JAK2-pSTAT5 EC50
JAK2 = JAK2 (Homo sapiens (Human), UniProt O60674); test: JAK2 activity inhibition assay (radioactive kinase assay / Caliper assay); assay type: biochemical; settings: read-out: JAK2 Ki
How it was run: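 Mobility-shift (Caliper) read-out of phosphorylated peptide substrate. Compound diluted in 25 mM HEPES pH 7.5, 0.01% Brij-35, 0.01% Triton, 0.5 mM EGTA; enzyme added, then peptide plus ATP in 10 mM MgCl2. Incubated 25 min at 28° C, stopped with EDTA buffer.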

IL-12 induced IFNγ = test: Ex vivo mouse IL-12 induced IFNγ studies; assay type: in vivo, C57/BL6 mice; settings: ex vivo mouse model, doses of ≤10 mg/kg
Procedure: C57/BL6 mice were given a single oral dose of either vehicle or different doses of compound at a volume of 10 mL/kg. 30 minutes to 1 hour after dosing, animals were euthanized and blood was collected via vena cava into sodium heparin blood collection tubes and inverted several times. Blood was then plated on anti-CD3 coated plates and stimulated with 2 ng/ml of mouse IL-12 in RPMI media for 24 hours at 37° C. in humidified incubator with 5% CO2. At the end of the incubation, blood was centrifuged at 260 g for 5 minutes to collect supernatant. IFNγ concentration in the supernatant was determined with mouse IFNγ MSD kit per manufacture's instruction (Meso Scale Discovery). At the time of the blood collection, plasma was collected for drug level analysis by LC-MS/MS.

TYK2 = TYK2 (Homo sapiens (Human), UniProt P29597); test: Tyk2 activity inhibition assay (radioactive kinase assay / Caliper assay); assay type: biochemical
Sequence of TYK2 (P29597 whole entry): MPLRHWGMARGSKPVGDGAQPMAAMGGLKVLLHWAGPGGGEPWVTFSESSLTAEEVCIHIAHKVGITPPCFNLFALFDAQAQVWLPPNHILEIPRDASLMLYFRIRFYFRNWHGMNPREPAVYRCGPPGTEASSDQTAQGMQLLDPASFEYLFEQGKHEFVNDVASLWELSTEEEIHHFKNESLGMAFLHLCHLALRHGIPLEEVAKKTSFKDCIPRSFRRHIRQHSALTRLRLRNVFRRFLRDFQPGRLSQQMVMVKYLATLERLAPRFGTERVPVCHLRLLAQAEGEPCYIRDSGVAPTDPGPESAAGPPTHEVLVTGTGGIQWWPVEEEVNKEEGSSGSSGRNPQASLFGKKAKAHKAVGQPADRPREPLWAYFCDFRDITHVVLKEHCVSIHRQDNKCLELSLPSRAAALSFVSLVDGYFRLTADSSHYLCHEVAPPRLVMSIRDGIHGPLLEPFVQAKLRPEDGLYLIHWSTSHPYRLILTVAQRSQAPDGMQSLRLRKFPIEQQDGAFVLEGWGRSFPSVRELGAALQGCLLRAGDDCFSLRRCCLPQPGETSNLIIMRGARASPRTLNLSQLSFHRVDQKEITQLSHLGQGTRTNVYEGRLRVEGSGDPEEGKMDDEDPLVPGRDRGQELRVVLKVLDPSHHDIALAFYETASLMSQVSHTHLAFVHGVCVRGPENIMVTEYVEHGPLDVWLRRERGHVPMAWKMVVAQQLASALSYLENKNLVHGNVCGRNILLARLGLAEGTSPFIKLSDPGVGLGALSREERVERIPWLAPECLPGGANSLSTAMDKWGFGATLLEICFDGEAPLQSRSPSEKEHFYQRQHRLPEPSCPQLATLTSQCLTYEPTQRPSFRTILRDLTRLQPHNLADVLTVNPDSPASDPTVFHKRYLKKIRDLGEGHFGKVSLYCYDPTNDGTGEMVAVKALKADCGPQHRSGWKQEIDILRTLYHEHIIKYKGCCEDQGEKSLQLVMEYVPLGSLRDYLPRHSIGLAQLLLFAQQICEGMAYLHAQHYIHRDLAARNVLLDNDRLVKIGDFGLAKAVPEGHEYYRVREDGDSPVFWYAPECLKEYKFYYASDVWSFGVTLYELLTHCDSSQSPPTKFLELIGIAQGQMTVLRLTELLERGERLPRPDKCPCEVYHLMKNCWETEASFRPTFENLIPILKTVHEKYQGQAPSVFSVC
How it was run: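 Radiometric format: TYK2 with peptide substrate (20 μM) and 33P-ATP at 10 μM in HEPES pH 7.5, 1% DMSO, 120 min at room temp, P81 paper capture. Caliper mobility-shift format: TYK2 9.75 nM, peptide 30 at 3 uM, ATP 16 uM (also 1 mM), 25 min at 28° C.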

Tyk2-pSTAT4 = test: IL-12 induced pSTAT4 in human PBMC; assay type: cell-based; settings: read-out: Tyk2-pSTAT4 EC50
How it was run: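 PBMC (200,000 cells/well) in serum-containing medium were preincubated with compound for 1 hr at 37 C, final DMSO 0.1%. Stimulation with 1.7 ng/mL IL-12 (final) for 30 minutes. pSTAT4 and total STAT4 were measured in lysates by MSD.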

IL-12/IL-18 induced IFNγ = test: Acute mouse model for IL-12/IL-18 induced IFNγ in serum; assay type: in vivo, C57BL/6 mice; settings: in mice, efficacious dose of 30 mg/kg SC
Procedure: C57BL/6 mice mice are dosed PO or SC with test compound at various doses or vehicle (n=9 or 10 per group) and then, 30 minutes later, injected IP with 10 ng IL-12 and 1 μg IL-18. Three hours after IL-12/IL-18 injection, mice were bled and serum isolated. Concentration of cytokines in serum were determined using CBA analysis.

Sequence of JAK2 (O60674 whole entry): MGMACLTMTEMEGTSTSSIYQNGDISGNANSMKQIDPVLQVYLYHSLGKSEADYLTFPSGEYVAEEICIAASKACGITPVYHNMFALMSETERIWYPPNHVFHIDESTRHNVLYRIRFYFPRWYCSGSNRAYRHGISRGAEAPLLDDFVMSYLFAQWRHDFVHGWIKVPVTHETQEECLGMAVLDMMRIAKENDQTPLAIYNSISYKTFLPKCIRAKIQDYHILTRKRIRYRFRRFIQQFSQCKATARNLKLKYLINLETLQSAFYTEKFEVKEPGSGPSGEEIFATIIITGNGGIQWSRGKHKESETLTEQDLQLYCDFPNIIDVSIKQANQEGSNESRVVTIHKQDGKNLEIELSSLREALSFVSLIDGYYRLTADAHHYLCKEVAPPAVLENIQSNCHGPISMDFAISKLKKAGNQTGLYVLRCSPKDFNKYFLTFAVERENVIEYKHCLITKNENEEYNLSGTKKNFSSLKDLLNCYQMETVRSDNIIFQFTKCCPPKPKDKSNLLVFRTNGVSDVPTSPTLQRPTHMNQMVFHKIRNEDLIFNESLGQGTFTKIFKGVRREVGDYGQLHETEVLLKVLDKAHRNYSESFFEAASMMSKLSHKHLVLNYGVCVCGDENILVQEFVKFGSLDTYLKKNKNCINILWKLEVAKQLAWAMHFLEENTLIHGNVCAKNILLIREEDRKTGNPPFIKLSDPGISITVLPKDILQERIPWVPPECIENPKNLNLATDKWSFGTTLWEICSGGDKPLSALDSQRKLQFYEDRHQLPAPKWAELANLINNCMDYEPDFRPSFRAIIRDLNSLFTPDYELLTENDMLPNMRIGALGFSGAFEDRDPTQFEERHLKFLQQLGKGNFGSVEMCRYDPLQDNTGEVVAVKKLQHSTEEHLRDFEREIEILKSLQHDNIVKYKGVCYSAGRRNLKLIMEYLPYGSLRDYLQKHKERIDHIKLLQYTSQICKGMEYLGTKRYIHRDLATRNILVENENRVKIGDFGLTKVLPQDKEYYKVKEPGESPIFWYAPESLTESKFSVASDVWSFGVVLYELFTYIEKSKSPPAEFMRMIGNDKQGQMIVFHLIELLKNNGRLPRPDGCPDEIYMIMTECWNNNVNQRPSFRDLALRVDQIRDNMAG

| Structure (SMILES) | EC50 (JAK2-pSTAT5; Homo sapiens, PBMC) | Ki (JAK2) | IL-12 induced IFNγ production (IL-12 induced IFNγ) | Ki (TYK2) | EC50 (Tyk2-pSTAT4; Homo sapiens, PBMC) | EC50 (JAK2-pSTAT5; GM-CSF induced pSTAT5, human PBMC) | EC50 (Tyk2-pSTAT4; IL-12 induced pSTAT4, human PBMC) | IL-12/IL-18 induced IFNγ production in vivo (IL-12/IL-18 induced IFNγ) |
| --- | --- | --- | --- | --- | --- | --- | --- | --- |
| CCNC(=O)c1ccc(Nc2cc(-c3c(F)cccc3F)nc3c2C(=O)NC3)nc1 [Compound I-136, 6-((2-(2,6-difluorophenyl)-5-oxo-6,7-dihydro-5H-pyrrolo[3,4-b]pyridin-4-yl)amino)-N-ethylnicotinamide] | < 2 µM | 0.01 to 0.1 µM | significantly inhibit | < 0.01 µM | < 2 µM |  |  |  |
| CC(C)(C)NC(=O)c1ccc(Nc2cc(-c3c(F)cccc3F)nc3c2C(=O)NC3)nc1 [Compound I-165, N-(tert-butyl)-6-((2-(2,6-difluorophenyl)-5-oxo-6,7-dihydro-5H-pyrrolo[3,4-b]pyridin-4-yl)amino)nicotinamide] |  | 0.01 to 0.1 µM | significantly inhibit | < 0.01 µM |  | 2 to 20 µM | < 2 µM |  |
| CCNC(=O)Cc1ccc(Nc2nc(-c3c(F)cccc3F)nc3c2C(=O)NC3)cc1 [Compound I-80, 2-(4-((2-(2,6-difluorophenyl)-5-oxo-6,7-dihydro-5H-pyrrolo[3,4-d]pyrimidin-4-yl)amino)phenyl)-N-ethylacetamide] | > 20 µM | 0.1 to 1 µM |  | < 0.01 µM | < 2 µM |  |  | inhibited |
